Results on three compounds are retold here after patent US20260347373A1, “HETEROCYCLIC COMPOUNDS, COMPOSITIONS THEREOF, AND METHODS OF TREATMENT THEREWITH” (BeOne Medicines I GmbH, priority 2023, published 2026).

Molecules are shown by their SMILES.

In one assay the target is WT KRAS (Homo sapiens, UniProt P01116). In words: KRAS WT Probe Displacement Assay (TR-FRET, GDP-loaded). It is filed as binding. The conditions noted are these: KRAS WT, read-out: KRAS^WT Probe Displacement Assay IC50. The text has this: (§1) The synthetic routes of probe 1 and 2, which have been disclosed in PCT/CN2022/070676, are hereby incorporated herein.
Sequence of WT KRAS (P01116 1-188 isoform P01116-2): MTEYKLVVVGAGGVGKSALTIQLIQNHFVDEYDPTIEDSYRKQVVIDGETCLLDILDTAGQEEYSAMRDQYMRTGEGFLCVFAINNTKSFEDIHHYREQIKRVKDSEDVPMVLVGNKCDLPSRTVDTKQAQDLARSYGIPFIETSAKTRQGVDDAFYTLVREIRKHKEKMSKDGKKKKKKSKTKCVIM
(In general: Time-resolved FRET reads energy transfer from a long-lived donor to a nearby acceptor.)

In the next assay the target is KRAS G12D (Homo sapiens, UniProt P01116, G12D). Put plainly: KRAS G12D Probe Displacement Assay (TR-FRET, GDP-loaded). The conditions noted are these: KRAS G12D, read-out: KRAS^G12D Probe Displacement Assay IC50. It counts as binding.
Sequence of KRAS G12D (P01116 1-188 isoform P01116-2 G12D): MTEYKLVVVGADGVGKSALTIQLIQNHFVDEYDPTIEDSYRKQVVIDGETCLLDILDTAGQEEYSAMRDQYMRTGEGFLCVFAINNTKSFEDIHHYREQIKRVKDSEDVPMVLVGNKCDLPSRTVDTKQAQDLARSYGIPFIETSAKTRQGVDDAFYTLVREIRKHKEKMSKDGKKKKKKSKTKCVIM
Description: as §1

Regarding `Cc1cc(N)cc(-c2nc3c4c(nc(OCC5(CN(C)C)CC5)nc4c2F)N2C[C@H]4CC[C@H](N4)[C@H]2CCO3)c1C(F)(F)F` [Example 56, 3-((6aR,7S,10R)-13-((1-((dimethylamino)methyl)cyclopropyl)methoxy)-1-fluoro-5,6,6a,7,8,9,10,11-octahydro-4-oxa-3,11a,12,14,15-pentaaza-7,10-methanocyclohepta[4,5]cycloocta [1,2,3-de]naphthalen-2-yl)-5-methyl-4-(trifluoromethyl)aniline], the half-maximal inhibitory concentration (IC50) (commonly the concentration needed to halve the response being measured) was 3 to 1000 nM on WT KRAS and below 0.3 nM on KRAS G12D.
On the same counts, the results for `Cc1cc(N)cc(-c2nc3c4c(nc(OCC5(CN6CCOC[C@H]6C)CC5)nc4c2F)N2C[C@H]4CC[C@H](N4)[C@H]2CCO3)c1C(F)(F)F` [Example 163, 3-((6aR,7S,10R)-1-fluoro-13-((1-(((R)-3-methylmorpholino)methyl)cyclopropyl)methoxy)-5,6,6a,7,8,9,10,11-octahydro-4-oxa-3,11a,12,14,15-pentaaza-7,10-methanocyclohepta[4,5]cycloocta[1,2,3-de]naphthalen-2-yl)-5-methyl-4-(trifluoromethyl)aniline] are 3 to 1000 nM and below 0.3 nM.
As for `[2H]C([2H])([2H])N1C[C@H](F)C[C@H]1[C@H](C)Oc1nc2c3c(nc(-c4cc(N)cc(C)c4C(F)(F)F)c(F)c3n1)OCC[C@@H]1[C@@H]3CC[C@H](CN21)N3` [Example 221, 3-((6aR,7S,10R)-1-fluoro-13-((S)-1-((2S,4R)-4-fluoro-1-(methyl-d3)pyrrolidin-2-yl)ethoxy)-5,6,6a,7,8,9,10,11-octahydro-4-oxa-3,11a,12,14,15-pentaaza-7,10-methanocyclohepta[4,5]cycloocta[1,2,3-de]naphthalen-2-yl)-5-methyl-4-(trifluoromethyl)aniline], the values for the IC50 on WT KRAS and at KRAS G12D were 3 to 1000 nM and below 0.3 nM, respectively.
